This series can be described thus: xn = mol fraction of the nth substance listed. The settings on record: 101 kPa, Fluid (supercritical or subcritical phases), Taylor dispersion method, x1 = 0.

For `O=C(O)c1ccc(O)c(O)c1` [3,4-dihydroxybenzoic acid] + O, the binary diffusion coefficient worked out at 2.46e-10 m2/s (298 K); 3.2e-10 m2/s (312 K); 3.84e-10 m2/s (332 K); 4.15e-10 m2/s (352 K); 5.12e-10 m2/s (372 K); 5.27e-10 m2/s (392 K).
Turning to `O=c1c(O[C@@H]2O[C@H]([C@H](O)CO)[C@H](O)[C@H]2O)c(-c2ccc(O)c(O)c2)oc2cc(O)cc(O)c12` [isoquercitrin] + O, the binary diffusion coefficient stood at 1.66e-10 m2/s (298 K); 2.19e-10 m2/s (312 K); 2.77e-10 m2/s (332 K); 3.07e-10 m2/s (352 K); 3.51e-10 m2/s (372 K).
As for `O=C(O)c1cc(O)c(O)c(O)c1` [3,4,5-trihydroxybenzoic acid] + O, the binary diffusion coefficient by setting is: (298 K) 2.5e-10 m2/s; (312 K) 2.87e-10 m2/s; (332 K) 3.3e-10 m2/s; (352 K) 4.07e-10 m2/s.
For the compound `COc1cc(-c2[o+]c3cc(O)cc(O)c3cc2O[C@@H]2O[C@H](CO)[C@@H](O)[C@H](O)[C@H]2O)ccc1O.[Cl-]` + O, the binary diffusion coefficient was found to be 2.19e-10 m2/s (298 K); 2.67e-10 m2/s (312 K); 3.65e-10 m2/s (332 K); 4.52e-10 m2/s (352 K); 5.39e-10 m2/s (372 K); 6.18e-10 m2/s (392 K). In addition, the binary diffusion coefficient (413 K) came to 6.49e-10 m2/s.
Regarding `Oc1cc(O)c2c(c1)O[C@H](c1ccc(O)c(O)c1)[C@H](O)C2` + O, the binary diffusion coefficient by setting is: (298 K) 1.97e-11 m2/s; (312 K) 2.66e-11 m2/s; (332 K) 3.38e-11 m2/s; (352 K) 3.89e-11 m2/s; (372 K) 4.06e-11 m2/s; (392 K) 5.19e-11 m2/s.
Regarding `COc1cc(-c2[o+]c3cc(O)cc(O[C@@H]4O[C@H](CO)[C@@H](O)[C@H](O)[C@H]4O)c3cc2O[C@@H]2O[C@H](CO)[C@@H](O)[C@H](O)[C@H]2O)cc(OC)c1O.[Cl-]` [malvidin-3,5-diglucoside chloride] + O, the binary diffusion coefficient by setting is: (298 K) 2.16e-10 m2/s; (312 K) 2.71e-10 m2/s; (332 K) 3.6e-10 m2/s; (352 K) 4.41e-10 m2/s; (372 K) 5.15e-10 m2/s; (392 K) 5.3e-10 m2/s. Moreover, the binary diffusion coefficient (413 K) stood at 5.79e-10 m2/s.
As for `Oc1cc(O)c2c(c1)O[C@H](c1ccc(O)c(O)c1)[C@@H](O)C2` [(+)-catechin] + O, the binary diffusion coefficient by setting is: (298 K) 2.33e-10 m2/s; (312 K) 3.07e-10 m2/s; (332 K) 3.76e-10 m2/s; (352 K) 4.05e-10 m2/s; (372 K) 4.25e-10 m2/s; (392 K) 4.78e-10 m2/s. The binary diffusion coefficient (413 K) was determined as 5.3e-10 m2/s.

The values are drawn from the NIST ThermoML archive (doi:10.1016/j.fluid.2010.12.003).
